The values below come from US9328090B2, “Arylethynyl derivatives” (Hoffmann-La Roche Inc., priority 2012, dated 2016).

In the assay the target is T1, human mGlu5a receptor (Homo sapiens, UniProt P41594).
T1 construct: expressed in transfected cells; host or cells: HEK-293 (monoclonal, stably transfected)
Briefly: Intracellular Ca2+ mobilization assay (mGlu5 PAM). To be noted: for EC50: HEK-293 cells stably transfected with human mGlu5a, L-glutamate added at EC20; for Efficacy [%]: maximal response in % of the maximal stimulatory effect obtained with saturating L-glutamate. Format: cell-based. The protocol: A monoclonal HEK-293 cell line stably transfected with a cDNA encoding for the human mGlu5a receptor was generated; for the work with mGlu5 Positive Allosteric Modulators (PAMs), a cell line with low receptor expression levels and low constitutive receptor activity was selected to allow the differentiation of agonistic versus PAM activity. Cells were cultured according to standard protocols (Freshney, 2000) in Dulbecco's Modified Eagle Medium with high glucose supplemented with 1 mM glutamine, 10% (vol/vol) heat-inactivated bovine calf serum, Penicillin/Streptomycin, 50 μg/ml hygromycin and 15 μg/ml blasticidin (all cell culture reagents and antibiotics from Invitrogen, Basel, Switzerland).
About 24 hrs before an experiment, 5×10^4 cells/well were seeded in poly-D-lysine coated, black/clear-bottomed 96-well plates. The cells were loaded with 2.5 μM Fluo-4AM in loading buffer (1×HBSS, 20 mM HEPES) for 1 hr at 37° C. and washed five times with loading buffer. The cells were transferred into a Functional Drug Screening System 7000 (Hamamatsu, Paris, France), and 11 half logarithmic serial dilutions of test compound at 37° C. were added and the cells were incubated for 10-30 min. with on-line recording of fluorescence. Following this pre-incubation step, the agonist L-glutamate was added to the cells at a concentration corresponding to EC20 (typically around 80 μM) with on-line recording of fluorescence; in order to account for day-to-day variations in the responsiveness of cells, the EC20 of glutamate was determined immediately ahead of each experiment by recording of a full dose-response curve of glutamate.
Responses were measured as peak increase in fluorescence minus basal (i.e. fluorescence without addition of L-glutamate), normalized to the maximal stimulatory effect obtained with saturating concentrations of L-glutamate. Graphs were plotted with the % maximal stimulatory using XLfit, a curve fitting program that iteratively plots the data using Levenburg Marquardt algorithm. The single site competition analysis equation used was y=A+((B−A)/(1+((x/C)D))), where y is the % maximal stimulatory effect, A is the minimum y, B is the maximum y, C is the EC50, x is the log 10 of the concentration of the competing compound and D is the slope of the curve (the Hill Coefficient). From these curves the EC50 (concentration at which half maximal stimulation was achieved), the Hill coefficient as well as the maximal response in % of the maximal stimulatory effect obtained with saturating concentrations of L-glutamate were calculated.
A depression of the signal observed after addition of the EC20 concentration of L-glutamate was indicative of an inhibitory activity of the test compound.
(Calcium assays in cells follow changes in intracellular calcium, usually with a dye or a luminescent sensor.)

T1 sequence (P41594 21-1180 isoform P41594-2 limits assumed): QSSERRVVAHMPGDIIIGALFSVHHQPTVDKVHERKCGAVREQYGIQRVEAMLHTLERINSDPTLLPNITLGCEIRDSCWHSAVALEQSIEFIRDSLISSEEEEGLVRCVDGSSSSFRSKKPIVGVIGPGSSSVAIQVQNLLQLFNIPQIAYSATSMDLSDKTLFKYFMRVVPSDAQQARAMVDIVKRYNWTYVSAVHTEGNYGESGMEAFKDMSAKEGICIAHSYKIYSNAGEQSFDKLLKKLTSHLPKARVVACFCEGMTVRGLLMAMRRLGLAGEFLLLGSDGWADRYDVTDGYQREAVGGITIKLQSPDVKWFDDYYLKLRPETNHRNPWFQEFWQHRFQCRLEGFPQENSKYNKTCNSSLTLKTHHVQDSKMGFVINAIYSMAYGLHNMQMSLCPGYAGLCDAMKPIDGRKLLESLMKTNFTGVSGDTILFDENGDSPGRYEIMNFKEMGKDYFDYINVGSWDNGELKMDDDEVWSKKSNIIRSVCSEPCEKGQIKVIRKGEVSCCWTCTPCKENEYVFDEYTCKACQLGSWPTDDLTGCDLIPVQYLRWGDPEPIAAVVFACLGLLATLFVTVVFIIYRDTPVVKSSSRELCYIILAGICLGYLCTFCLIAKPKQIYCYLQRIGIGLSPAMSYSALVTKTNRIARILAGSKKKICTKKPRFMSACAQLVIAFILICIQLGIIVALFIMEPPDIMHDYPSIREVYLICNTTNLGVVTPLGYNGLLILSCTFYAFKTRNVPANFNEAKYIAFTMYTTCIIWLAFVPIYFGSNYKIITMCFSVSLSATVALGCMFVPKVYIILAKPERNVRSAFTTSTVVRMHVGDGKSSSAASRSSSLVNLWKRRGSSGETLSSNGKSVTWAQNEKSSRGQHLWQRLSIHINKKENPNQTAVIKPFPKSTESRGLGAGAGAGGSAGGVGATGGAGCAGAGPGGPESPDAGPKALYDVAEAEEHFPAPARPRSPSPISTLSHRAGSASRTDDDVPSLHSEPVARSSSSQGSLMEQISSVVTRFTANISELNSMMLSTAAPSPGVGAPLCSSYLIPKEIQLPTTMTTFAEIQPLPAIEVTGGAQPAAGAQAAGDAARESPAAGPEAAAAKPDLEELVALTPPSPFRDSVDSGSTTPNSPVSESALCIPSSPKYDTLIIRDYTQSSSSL

In the case of `O=C1C[C@H]2CCC[C@H]2N1c1ccc(C#Cc2ccc(F)cc2)cn1` [Example 3, (3aR,6aR)-1-(5-((4-Fluorophenyl)ethynyl)pyridin-2-yl)hexahydrocyclopenta[b]pyrrol-2(1H)-one], the EC50 (commonly the concentration giving half of the maximal effect) is 10 nM and the “Efficacy [%]” value came to 44%.
On to `CC1(C)CC(=O)N(c2ccc(C#Cc3cccc(F)c3)cn2)C1` [Ref. 1 Ex. 40, reference compound], for which the “Efficacy [%]” value is 100%.
Consider `O=C1C[C@H]2CCC[C@H]2N1c1ccc(C#Cc2cc(F)ccc2F)cn1` [Example 4, (3aR,6aR)-1-(5-((2,5-Difluorophenyl)ethynyl)pyridin-2-yl)hexahydrocyclopenta[b]pyrrol-2(1H)-one], for which a half-maximal response (EC50) required 8 nM and the “Efficacy [%]” value amounted to 19%.
For `O=C1C[C@H]2CCC[C@H]2N1c1ccc(C#Cc2cccc(F)c2)cn1` [Example 2, (3aR,6aR)-1-(5-((3-Fluorophenyl)ethynyl)pyridin-2-yl)hexahydrocyclopenta[b]pyrrol-2(1H)-one], in that order: 10 nM and 48%.
As to `CC1(C)CC(=O)N(c2ccc(C#Cc3ccccc3)cn2)C1` [Ref. 1 Ex. 13, reference compound], the “Efficacy [%]” value came to 129%.
Consider `O=C1C[C@H]2CCC[C@H]2N1c1ccc(C#Cc2ccccc2)cn1` [Example 1, (3aR,6aR)-1-(5-(phenylethynyl)pyridin-2-yl)hexahydrocyclopenta[b]pyrrol-2(1H)-one], for which the EC50 was 10 nM and the “Efficacy [%]” value is 45%.
With `O=C1CC2(CCCC2)CN1c1ccc(C#Cc2ccccc2)cn1` [Ref. 1 Ex. 59, reference compound], the “Efficacy [%]” value was 81%.
